According to patent US5654179A, “Nucleic acid preparation methods” (HRI Research, Inc., priority 1994, dated 1997):
Read-outs that look alike come from different tables or passages of the source.

Tests used:
Taq polymerase [1] = format: biochemical
Procedure: (§1) Generally, PCR was carried out using 175-200 μM dNTPS (deoxyribonucleoside 5'-triphosphates) and 0.5 to 1.0 μM primers. Five units/100 μl of Taq polymerase were used. PCR reactions were overlaid with 30-100 μl light mineral oil. A typical PCR cycle for HIV amplification using a Perkin-Elmer Cetus DNA Thermal Cycler (Part No. N8010150) was: denaturation at 95° C. for 30 seconds; annealing at 55° C. for 30 seconds; and extension at 72° C. for 1 minute. PCR cycles were normally carried out in this manner for 35 cycles followed by 7 minutes at 72° C.
In some instances below, amplification of human histocompatibility (HLA) Class II genes was performed using primer pair GH26 (SEQ ID NO:2) and GH27 (SEQ ID NO:3) and human placental DNA to produce a 242-mer product (SEQ ID NO: 4). These primers and other primers are described in PCR Protocols: A Guide To Methods and Applications, Innis, M. A. et al. eds., pp. 261-271 (1990)).
Whole blood was prepared according to Mode III (see FIG. 1). Whole blood samples (100 μl) were lysed with protease K (0.5 mg/ml, 55° C. for 1 hour). The enzyme was inactivated by heating (95°-100°C., 10 minutes). Four sets of reactions were then set up involving the addition of interfering reagent to the protease lysate: 1) transferrin with 10 mM sodium bicarbonate; 2) transferrin with 20 mM sodium bicarbonate; 3) serum albumin with 10 mM sodium bicarbonate; and 4) serum albumin with no cofactor. These reaction were performed at room temperature for thirty minutes using a concentration range for transferrin and serum albumin (10, 25, 50, 75, 100, 150, 200 and 250 μg per 20 μl PCR rxn). PCR was then set up using the primer pair GH26/GH27 to produce a 242-mer product (see above). Two standard control reactions were run in separate tubes: i) a no nucleic acid target control; and 2) a positive control (human placental DNA). Four additional control lanes were run: 1) no inhibitor treatment (two lanes); 2) 10 mM sodium bicarbonate only (one lane); and 3) 50 μg transferrin only (one lane); and 4) transferrin with 10 mM sodium bicarbonate (two lanes). PCR was carried out for 35 cycles. The PCR products were thereafter electrophoresed (agarose) and visualized with ethidium bromide staining. The two above-named control reactions were electrophoresed in lanes 9 and 10 of FIG. 16A, respectively, as well as lanes 17 and 18 of FIG. 16B, respectively. In FIG. 16C, the positive control is in lane 1 and the negative control is in lane 2.
Whole blood was prepared according to Mode III (see FIG. 1). Whole blood samples (20 μl) were lysed with protease K (0.5 mg/ml, 55° C. for 1 hour). The enzyme was inactivated by heating (95°-100° C., 10 minutes). Reactions were then set up involving the addition of bovine transferrin or serum albumin with various cofactors, including bicarbonate ion, azide ion, thiocyanate ion, cyanate ion, oxalate ion, malonate ion, glycinate ion, and thioglycolate ion. These reaction were performed at room temperature for thirty minutes. PCR was then set up using the using primer pair GH26/GH27 to produce a 242-mer product (see above). PCR was carried out for 35 cycles. The PCR products were thereafter electrophoresed (agarose) and visualized with ethidium bromide staining.

Taq polymerase [2] = assay: HIV PCR after inhibitor treatment of whole blood lysate; format: biochemical; settings: Mode III, transferrin with sodium bicarbonate
Procedure: The enzyme was inactivated by heating (95°-100° C., 10 minutes).

[3] = in the presence of an anion (such as HCO3^-); cited from earlier work
[4] = Transferrin binding of heme
Description: This is lower than that expected from the molar ratio for transferrin to iron binding of 0.5. Second, there is the question of the central metal ion: the central metal iron was found not to be required for the transferrin-mediated phenomenon of the present invention.

Taq polymerase [5] = assay: PCR from boiled whole blood with or without transferrin; format: biochemical; settings: with transferrin; without transferrin inhibited above 1 μl
Procedure: Experiment 1. Whole blood (200 μl) was boiled for 10 minutes then briefly centrifuged to precipitate the solid coagulated mass which formed. The supernatant layer was then used directly for PCR amplification (1, 2, 3, 4, or 5 μl), either with or without transferrin. […] An aliquot of 5 μl whole blood processed by Mode III gave a very intense signal, indicating the advantage of the method over the boiling method, which provided no signal at all with a 5 μl aliquot.

Taq polymerase [6] = assay: PCR inhibition, SK38/39 system, 115-mer product on ethidium bromide gel or autoradiograph; format: biochemical
Procedure: as §1
In other cases, amplification of HIV sequences was performed using primer pair SK-38 (SEQ ID NO:5) and SK-39 (SEQ ID NO:6) and 115-mer (SEQ ID NO:7) as target to produce a 115-mer product.
Where agarose gel electrophoresis was used, the PCR products were fractionated by electrophoresis through a 3% Nusieve/1% agarose gel in TBE buffer. Electrophoresis was typically carried out in a constant voltage of 8-10 V/cm. Following agarose gel electrophoresis, individual bands were, in most cases, visualized by ethidium bromide staining. This involved staining the agarose gel with 1 μg/ml ethidium bromide in TBE for 30 minutes followed by destaining the agarose gel with TBE for 30 minutes.
The chemical reaction was performed as follows. Two aliquots (30 mg/aliquot) of sodium borohydride (NaBH4) were added at ten minute intervals to 1 ml of 200 μM hematin (Sigma) in 1M Tris (pH 8.0) under argon in the dark. The pH was adjusted to 6.0 between additions. At the end of the reaction (20 minutes) the pH was adjusted to 1.0 and then neutralized to pH 7.0. Six aliquots (5 μl) of the product of the reaction corresponding to different amounts of reacted hematin (37.5 μM, 7.5 μM, 1.5 μM, 0.3 μM, 0.06 μM, 0.012 μM) were added to standard (20 μl) PCR reactions in different tubes using the SK38/39 system (see above). Three standard control reactions were run in separate tubes: i) a no nucleic acid target control; ii) a no primer control; and iii) a positive control (no hematin). In addition, unreacted hematin was added to four different tubes in different amounts (50 μM, 5 μM, 0.5 μM, and 0.05 μM). PCR was carried out for 30 cycles. The PCR products were thereafter electrophoresed (agarose) and visualized with ethidium bromide staining (FIG. 2A, lanes 1-13). The three above-named control reactions were electrophoresed in lanes 1, 2 and 3, respectively. […] The unreacted hematin tubes (lanes 4-7) show no product until hematin is present at a very low concentration (0.05 μM, lane 7), at which point product is evident. […] Indeed, product is evident where 1.5 μM reacted hematin or less was present. […] A score (i.e., % maximum intensity of a positive control) was given to each band. An OD unit of 1.0 corresponds to 100% of maximum intensity. After examination of a plot of the estimated OD units to the concentration of hematin (expressed in the log scale) in these PCR reactions, it is clear that approximately a thirty-fold concentration difference was achieved (reacted to unreacted).
The photochemical reaction was performed as follows. Stock biliverdin (Sigma, 5 mM) was diluted in solution (50 mM Tris pH 7.8) to a final concentration of 200 μM. Two aliquots (300 μl) were then made. One aliquot was left unreacted. The other aliquot was exposed to ultraviolet radiation from an HRI-100 for 16 hours using the industry standard, F8T5BL hot cathode dual bipin lamps. Thereafter, both the unirradiated and irradiated materials were added (5 μl) to standard (20 μl) PCR reactions in different tubes using the SK38/39 system (see above) and 10^9 copies of 115-mer target. Three standard control reactions were run in separate tubes: i) a no nucleic acid target control; ii) a positive control (no biliverdin); and iii) a no Taq control. PCR was carried out for thirty (30) cycles. The PCR products were thereafter electrophoresed (agarose) and visualized with ethidium bromide staining (FIG. 3A, lanes 1-5). […]

T4 DNA ligase = settings: dilution, dialysis, or sucrose gradient centrifugation of cell-free extracts; cited from earlier work
[7] = test system: DNA-cytoplasmic DNA polymerase complex; settings: cited from earlier work
[8] = test system: NAD-dependent DNA ligase from E. coli; settings: cited from earlier work
DNA ligase = settings: cited from earlier work
[9] = test system: reverse transcriptase purified from arian myeloblastosis virus; settings: cited from earlier work
[10] = test system: virion-associated reverse transcriptase (RTase) of murine leukemia virus (MuLV); settings: cited from earlier work
Taq polymerase [11] = settings: cited from earlier work
[12] = test system: DNA ligase from mouse erythroleukemia (MEL) cells; settings: dilution, dialysis, or sucrose gradient centrifugation of cell-free extracts; cited from earlier work

transferrin: blood serum component, an iron transport protein
PCR product (Taq polymerase [1]; 10 μg per 20 μl PCR rxn, with cofactor): No product is visible | PCR product (Taq polymerase [1]; 25 μg per 20 μl PCR rxn, with cofactor): faint product band | PCR product (Taq polymerase [1]; 50 μg transferrin alone): No product is visible | PCR product (Taq polymerase [1]; 50 μg transferrin with 10 mM cofactor): Strong product bands | PCR product (Taq polymerase [1]; higher concentration of the cofactor (20 mM sodium bicarbonate), lanes 11-18): not as apparent | PCR product (Taq polymerase [1]; higher concentrations (50 to 250 μg, lanes 3-8), with cofactor): Strong product bands | amplification specificity (Taq polymerase [2]): improves the specificity of the reaction | capacity to take up iron atoms [3]: 2 iron atoms per molecule | molar ratio of transferrin to heme at which transferrin is most effective in binding heme [4]: < 0.27 | aliquot of boiled whole blood supernatant up to which signal was provided (Taq polymerase [5]): ≤ 3 µL | PCR product in presence of protoporphyrin (Taq polymerase [6]): product is visible

hemin
reversibility of inhibition of T4 DNA ligase (T4 DNA ligase): not reversible | complete inhibition of the formation of DNA-enzyme complex [7]: ≥ 12 µM | mode of inhibition of DNA synthesis [7]: competitive with respect to template and noncompetitive with respect to substrate | concentration up to which E. coli DNA ligase was not inhibited [8]: up to 150 μM | concentration that does not affect DNA ligase activity or DNA substrate integrity (DNA ligase): ≤ 4 µM | IC50 (DNA ligase; pre-incubation, depending on the source of the DNA ligase, read-out: half-maximal inhibition of DNA ligase): 25 to 100 µM | inhibition of reverse transcriptase from myeloblastosis virus [9]: does not inhibit | reversibility of inhibition of MuLV RTase [10]: reversible inhibitor | inhibition of PCR / Taq polymerase (Taq polymerase [11]): inhibit | reversibility of inhibition of DNA ligase [12]: not reversible
